Test results published in paper PMC12430544 (Molecules, 2025).

Assays:
[1] = Metal chelation by UV–vis spectrometry, stoichiometry and affinity estimate (Zn); format: physicochemical; settings: CH3OH/H2O (v/v = 9/1), 2L+M⇔ML2
Source text: (§1) Given the 8-hydroxy(amino)quinoline moiety with the properties to bind metal ions, the abilities of all the compounds in binding metal ions (Cu^II, Fe^III, Zn^II) were studied by UV–vis spectrometry. At first three compounds were chose to test the binding abilities. Upon the addition of CuCl2 or ZnSO4 the maximum absorption suffered a bathochromic shift, pointing out the formation of complex compound–Cu^II. […] […].
(§2) To determine the stoichiometry of the complex compound–Cu^II, the technique of continuous variations (also called Job’s method) was used by preparing solutions of compounds 15a, 17b and CuSO4 so that the sum of concentrations of both species was constant at […] in all samples, but the proportions of both components varied between 0 and 100%. The UV spectra were recorded and the absorbance change at the maximum absorption wavelength of the compound-Cu^II complex, meaning the 15a-Cu^II complex at 264 nm and the 17b-Cu^II at 265 nm, respectively. The absorbance change was plotted versus the mole fraction of the compound, giving two straight lines whose equations were calculated. […] […].
(§3) Since all the ligands studied L from ML2 species and in accordance with the Beer–Lambert law, complexation reactions can be summarized as 2L+M⇔ML2 with K = 1−α/4C^2α^3 , and α can be calculated from the data of the absorption.
(§4) Metal-chelating properties were evaluated by UV–vis spectrometry. To screen the ability of chelating metal ions, the same concentrations of compound and metal ion were mixed in CH3OH/H2O (v/v = 9/1), and the UV–vis spectrum was tested; compared to the compound, the maximum absorption that suffered a bathochromic shift would point out the formation of a complex compound–metal ion. The stoichiometry of the complex compound–metal ion was determined by Job’s method. The affinity of compounds 15–17 as ligands (excepted 15f, 16d, 16g, 16k) for Cu^II or Zn^II were estimated in the CH3OH/H2O solution (v/v = 9/1). Since all the ligands studied L from ML2 species and in accordance with the Beer–Lambert law, complexation reactions can be summarized as 2L+M⇔ML2 with K = 1−α/4C^2α^3 , and α = A/Amax; A was the data of absorption tested when the compound–metal ion = 2/1 under the maximum absorption wavelength of the complex, Amax was the absorption when the compound completely formed a complex with the metal ion; the data can be obtained as an approximation when the metal ion is in excess, and the absorption changes little as the concentration of metal ion still increases.

[2] = target: T1, acetylcholinesterase (AChE, from an electric eel) (Electrophorus electricus, UniProt O42275); assay: biochemical; settings: for IC50: electric eel AChE, Ellman's method, pH 7.4, means ± SEM of at least three experiments, read-out: IC50 AChE Inhibition; for Selectivity Index = IC50 (AChE)/IC50 (BuChE): ratio of eeAChE and equine BuChE IC50
T1 construct: purchased Sigma-Aldrich
Description: (§5) Cholinesterase (ChE) inhibitory activity was evaluated using a modified Ellman’s spectrophotometric method. Acetylcholinesterase (AChE, from electric eel), butyrylcholinesterase (BuChE, from equine serum), 5,5′-dithiobis-(2-nitrobenzoic acid) (Ellman’s reagent, DTNB), S-butyrylthiocholine iodide (BTCI), acetylthiocholine iodide (ATCI), and tarcine hydrochloride were purchased from Sigma-Aldrich. Tarcine hydrochloride was used as a reference standard. All the assays were carried out in 0.1 M KH2PO4/K2HPO4 buffer (pH = 7.4). Stock solutions of tested compounds (10 mM) were prepared in DMSO (below 0.5%, v/v) and diluted in phosphate buffer. The assay was performed in 96-well plate by adding 25 μL of 1 mM acetylthiocholine iodide or butyrylthiocholine iodide used as substrate in the assay, 125 μL of 1 mM 5,5′-dithiobis-(2-nitrobenzoic acid) (DTNB), 25 μL of 0.1 M phosphate buffer (pH = 7.4), 25 μL of testing substance in various concentrations, and 50 μL of 0.2 Units/mL AChE from an electric eel or BuChE from equine serum, respectively. At least five concentrations of the test compounds were assayed. […] The enzyme activity and the percentage inhibition were determined.

[3] = target: T2, butyrylcholinesterase (BuChE, from horse serum) (Equus caballus, UniProt P81908); assay: biochemical; settings: equine serum BuChE, Ellman's method, pH 7.4; means ± SEM of at least three experiments; read-out: IC50 BuChE Inhibition
T2 construct: purchased Sigma-Aldrich
Description: as §5

[4] = target: T3, Aβ1–42 (Homo sapiens, UniProt P05067); assay: Inhibition of self-induced Aβ1–42 aggregation (ThT fluorescence); format: biochemical; settings: 20 μM compound, thioflavin-T fluorescence, mean ± SD of at least three independent experiments; read-out: Aβ Aggregation Inhibition (%), self-induced Aβ1–42
T3 construct: aggregation of Aβ1–42 synthetic peptide into fibrils
Description: Self-induced Aβ1–42 aggregation of all the compounds we obtained was also evaluated. […] ThT is a histochemical dye that is known to bind to the peptide β-sheet conformation, which is the predominant secondary structure of amyloid-beta fibrils. […] The inhibition studies were carried out upon incubating Aβ1–42 with and without the compounds.
Aβ1–42 was dissolved in 100% 1,1,1,3,3,3-[…] (HFIP) to a concentration of 1 mg/mL, sonicated in a water bath overnight, aliquoted into microcentrifuge tubes, dried under vacuum, and stored at −20 °C. Immediately prior to use, the HFIP-treated Aβ1–42 was dissolved in dimethylsulfoxide (DMSO) as the stored solution. […] Amounts of 5 μL of compound (200 μM) and 5 μL of 200 μM Aβ1–42 were added into 40 μL of phosphate-buffered saline (PBS at pH 7.4). After incubation at room temperature on a thermostatic shaker for 72 h, 100 μL of 5 μM ThT solution (in PBS at pH 7.4) was added to the reaction solution. […] The Aβ1–42 aggregation inhibition percentage was calculated using the following formula: inhibition percentage = (F1 − F2)/(F1 − F0) × 100%.

[5] = Metal chelation by UV–vis spectrometry, Job's method and affinity estimate (Cu); format: physicochemical; settings: CH3OH/H2O (v/v = 9/1), UV–vis, 2L+M⇔ML2
Source text: as §1, §2, §3, §4

T2 sequence (P81908 whole entry): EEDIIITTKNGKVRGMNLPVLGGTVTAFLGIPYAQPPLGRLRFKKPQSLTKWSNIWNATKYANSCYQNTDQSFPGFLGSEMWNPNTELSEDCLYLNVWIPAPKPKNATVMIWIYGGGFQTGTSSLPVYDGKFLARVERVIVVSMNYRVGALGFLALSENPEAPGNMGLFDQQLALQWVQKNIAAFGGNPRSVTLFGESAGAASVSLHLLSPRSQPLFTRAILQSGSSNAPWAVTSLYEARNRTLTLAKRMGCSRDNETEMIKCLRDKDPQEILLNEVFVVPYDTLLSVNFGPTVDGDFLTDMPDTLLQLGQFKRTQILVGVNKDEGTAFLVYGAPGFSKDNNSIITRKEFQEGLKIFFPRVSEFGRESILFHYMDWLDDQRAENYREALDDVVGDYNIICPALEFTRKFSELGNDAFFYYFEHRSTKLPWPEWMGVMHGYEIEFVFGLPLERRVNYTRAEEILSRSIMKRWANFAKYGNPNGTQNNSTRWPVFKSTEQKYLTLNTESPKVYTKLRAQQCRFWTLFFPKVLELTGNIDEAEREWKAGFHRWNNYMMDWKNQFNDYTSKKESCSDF
T1 sequence (O42275 24-633): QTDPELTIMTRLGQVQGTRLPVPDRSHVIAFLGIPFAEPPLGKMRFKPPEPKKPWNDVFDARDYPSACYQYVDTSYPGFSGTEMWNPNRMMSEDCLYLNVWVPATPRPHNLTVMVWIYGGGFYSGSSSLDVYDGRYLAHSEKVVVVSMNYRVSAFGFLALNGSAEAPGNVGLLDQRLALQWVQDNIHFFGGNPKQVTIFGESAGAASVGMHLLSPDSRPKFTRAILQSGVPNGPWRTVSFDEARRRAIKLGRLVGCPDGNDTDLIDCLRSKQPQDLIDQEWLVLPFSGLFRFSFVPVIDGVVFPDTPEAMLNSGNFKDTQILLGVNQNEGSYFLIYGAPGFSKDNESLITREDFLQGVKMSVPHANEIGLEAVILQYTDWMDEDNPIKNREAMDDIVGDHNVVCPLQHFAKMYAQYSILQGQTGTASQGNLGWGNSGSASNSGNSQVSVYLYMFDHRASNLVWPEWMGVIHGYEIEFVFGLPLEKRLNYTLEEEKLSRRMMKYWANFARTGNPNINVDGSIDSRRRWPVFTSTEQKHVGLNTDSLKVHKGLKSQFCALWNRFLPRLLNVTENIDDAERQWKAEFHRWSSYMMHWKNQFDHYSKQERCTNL
T3 sequence (P05067 672-713): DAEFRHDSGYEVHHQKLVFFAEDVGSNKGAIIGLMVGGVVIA

Oc1ccc(F)c2ccc(CN3CCN(CCCCCNc4c5c(nc6ccccc46)CCCC5)CC3)nc12 [Compound 16i, 5-Fluoro-2-((4-(5-((1,2,3,4-tetrahydroacridin-9-yl)amino)pentyl)piperazin-1-yl)methyl)quinolin-8-ol]
LogK Zn (affinity of ligand for Zn^II, ML2) [1]: 9.49 | IC50 [2]: 400 ± 6 nM | Selectivity Index = IC50 (AChE)/IC50 (BuChE) [2]: 3.33 | IC50 [3]: 120 ± 20 nM | inhibition at 20 µM [4]: 55.6 ± 5.3% | LogK Cu (affinity of ligand for Cu^II, ML2) [5]: 9.49

Oc1ccc(F)c2ccc(CN3CCN(CCCNc4c5c(nc6ccccc46)CCCC5)CC3)nc12 [Compound 16f, 5-Fluoro-2-((4-(3-((1,2,3,4-tetrahydroacridin-9-yl)amino)propyl)piperazin-1-yl)methyl)quinolin-8-ol]
LogK Zn (affinity of ligand for Zn^II, ML2) [1]: 9.45 | IC50 [2]: 87 ± 2 nM | Selectivity Index = IC50 (AChE)/IC50 (BuChE) [2]: 3.11 | IC50 [3]: 28 ± 2 nM | inhibition at 20 µM [4]: 54.4 ± 2.9% | LogK Cu (affinity of ligand for Cu^II, ML2) [5]: 9.62

Nc1cccc2ccc(CN3CCN(CC(=O)Nc4c5c(nc6ccccc46)CCCC5)CC3)nc12 [Compound 15f, 2-(4-((8-Aminoquinolin-2-yl)methyl)piperazin-1-yl)-N-(1,2,3,4-tetrahydroacridin-9-yl)acetamide]
IC50 [2]: 1240 ± 210 nM | Selectivity Index = IC50 (AChE)/IC50 (BuChE) [2]: 0.16 | IC50 [3]: 7850 ± 710 nM | inhibition at 20 µM [4]: 22 ± 1.8%

Oc1ccc(F)c2ccc(CN3CCN(CCNc4c5c(nc6ccccc46)CCCC5)CC3)nc12 [Compound 16b, 5-Fluoro-2-((4-(2-((1,2,3,4-tetrahydroacridin-9-yl)amino)ethyl)piperazin-1-yl)methyl)quinolin-8-ol]
LogK Zn (affinity of ligand for Zn^II, ML2) [1]: 9.63 | IC50 [2]: 190 ± 5 nM | Selectivity Index = IC50 (AChE)/IC50 (BuChE) [2]: 0.95 | IC50 [3]: 200 ± 3 nM | inhibition at 20 µM [4]: 22.9 ± 2.4% | LogK Cu (affinity of ligand for Cu^II, ML2) [5]: 9.99

Nc1cccc2ccc(CN3CCN(CCNc4c5c(nc6ccccc46)CCCC5)CC3)nc12 [Compound 16d, N-(2-(4-((8-aminoquinolin-2-yl)methyl)piperazin-1-yl)ethyl)-1,2,3,4-tetrahydroacridin-9-amine]
IC50 [2]: 180 ± 4 nM | Selectivity Index = IC50 (AChE)/IC50 (BuChE) [2]: 0.86 | IC50 [3]: 210 ± 3 nM | inhibition at 20 µM [4]: 84.7 ± 3.6%

Oc1c(Cl)cc(Cl)c2ccc(CN3CCN(CCNc4c5c(nc6ccccc46)CCCC5)CC3)nc12 [Compound 16c, 5,7-Dichloro-2-((4-(2-((1,2,3,4-tetrahydroacridin-9-yl)amino)ethyl)piperazin-1-yl)methyl)quinolin-8-ol]
LogK Zn (affinity of ligand for Zn^II, ML2) [1]: 9.28 | IC50 [2]: 2680 ± 300 nM | Selectivity Index = IC50 (AChE)/IC50 (BuChE) [2]: 0.79 | IC50 [3]: 3410 ± 6 nM | inhibition at 20 µM [4]: 92.5 ± 3.3% | LogK Cu (affinity of ligand for Cu^II, ML2) [5]: 9.75

Oc1ccc(Cl)c2ccc(CN3CCN(CCCCCNc4c5c(nc6ccccc46)CCCC5)CC3)nc12 [Compound 16j, 5-Chloro-2-((4-(5-((1,2,3,4-tetrahydroacridin-9-yl)amino)pentyl)piperazin-1-yl)methyl)quinolin-8-ol]
LogK Zn (affinity of ligand for Zn^II, ML2) [1]: 9.65 | IC50 [2]: 130 ± 20 nM | Selectivity Index = IC50 (AChE)/IC50 (BuChE) [2]: 2.89 | IC50 [3]: 45 ± 11 nM | inhibition at 20 µM [4]: 74.8 ± 4.7% | LogK Cu (affinity of ligand for Cu^II, ML2) [5]: 9.96

COc1cc(/C=C/C(=O)CC(=O)/C=C/c2ccc(O)c(OC)c2)ccc1O [curcumin, reference compound]
inhibition at 20 µM [4]: 58.3 ± 2.5%

O=C(CN1CCN(Cc2ccc(O)c3ncccc23)CC1)Nc1c2c(nc3ccccc13)CCCC2 [Compound 17a, 2-(4-((8-Hydroxyquinolin-5-yl)methyl)piperazin-1-yl)-N-(1,2,3,4-tetrahydroacridin-9-yl)acetamide]
LogK Zn (affinity of ligand for Zn^II, ML2) [1]: 9.67 | IC50 [2]: 4460 ± 330 nM | Selectivity Index = IC50 (AChE)/IC50 (BuChE) [2]: 1.08 | IC50 [3]: 4130 ± 100 nM | inhibition at 20 µM [4]: 24.6 ± 3.7% | LogK Cu (affinity of ligand for Cu^II, ML2) [5]: 9.50

Oc1cccc2ccc(CN3CCN(CCNc4c5c(nc6ccccc46)CCCC5)CC3)nc12 [Compound 16a, 2-((4-(2-((1,2,3,4-Tetrahydroacridin-9-yl)amino)ethyl)piperazin-1-yl)methyl)quinolin-8-ol]
LogK Zn (affinity of ligand for Zn^II, ML2) [1]: 9.48 | IC50 [2]: 440 ± 6 nM | Selectivity Index = IC50 (AChE)/IC50 (BuChE) [2]: 1.63 | IC50 [3]: 270 ± 4 nM | inhibition at 20 µM [4]: 77 ± 4.3% | LogK Cu (affinity of ligand for Cu^II, ML2) [5]: 9.63

O=C(CN1CCN(Cc2ccc3c(Cl)cc(Cl)c(O)c3n2)CC1)Nc1c2c(nc3ccccc13)CCCC2 [Compound 15e, 2-(4-((5,7-Dichloro-8-hydroxyquinolin-2-yl)methyl)piperazin-1-yl)-N-(1,2,3,4-tetrahydroacridin-9-yl)acetamide]
LogK Zn (affinity of ligand for Zn^II, ML2) [1]: 9.65 | IC50 [2]: 5730 ± 170 nM | Selectivity Index = IC50 (AChE)/IC50 (BuChE) [2]: 1.04 | IC50 [3]: 5530 ± 270 nM | inhibition at 20 µM [4]: 55.9 ± 2.5% | LogK Cu (affinity of ligand for Cu^II, ML2) [5]: 9.59

O=C(CN1CCN(Cc2ccc3c(Cl)ccc(O)c3n2)CC1)Nc1c2c(nc3ccccc13)CCCC2 [Compound 15b, 2-(4-((5-Chloro-8-hydroxyquinolin-2-yl)methyl)piperazin-1-yl)-N-(1,2,3,4-tetrahydroacridin-9-yl)acetamide]
LogK Zn (affinity of ligand for Zn^II, ML2) [1]: 11.34 | IC50 [2]: 2180 ± 170 nM | Selectivity Index = IC50 (AChE)/IC50 (BuChE) [2]: 0.19 | IC50 [3]: 11500 ± 1560 nM | LogK Cu (affinity of ligand for Cu^II, ML2) [5]: 10.09

Oc1cccc2ccc(CN3CCN(CCCCCNc4c5c(nc6ccccc46)CCCC5)CC3)nc12 [Compound 16h, 2-((4-(5-((1,2,3,4-Tetrahydroacridin-9-yl)amino)pentyl)piperazin-1-yl)methyl)quinolin-8-ol]
LogK Zn (affinity of ligand for Zn^II, ML2) [1]: 9.63 | IC50 [2]: 210 ± 3 nM | Selectivity Index = IC50 (AChE)/IC50 (BuChE) [2]: 2.10 | IC50 [3]: 100 ± 10 nM | inhibition at 20 µM [4]: 93.2 ± 3.9% | LogK Cu (affinity of ligand for Cu^II, ML2) [5]: 9.87

Nc1cccc2ccc(CN3CCN(CCCCCNc4c5c(nc6ccccc46)CCCC5)CC3)nc12 [Compound 16k, N-(5-(4-((8-aminoquinolin-2-yl)methyl)piperazin-1-yl)pentyl)-1,2,3,4-tetrahydroacridin-9-amine]
IC50 [2]: 210 ± 3 nM | Selectivity Index = IC50 (AChE)/IC50 (BuChE) [2]: 3.89 | IC50 [3]: 54 ± 4 nM | inhibition at 20 µM [4]: 86.7 ± 3.8%
